According to patent US6399614B1, “1-(N-phenylaminoalkyl)piperazine derivatives substituted at position 2 of the phenyl ring” (Recordati S.A. Chemical and Pharmaceutical Company, priority 1997, dated 2002):

Columns and labels:
[1] = target: T1, pre-synaptic 5-HT1A receptor (Mus musculus, UniProt Q64264); assay: Antagonism of hypothermia induced by 8-OH-DPAT in mice (pre-synaptic antagonism); assay type: in vivo; settings: for ED50: mouse, iv, read-out: Pre-synaptic 5-HT1A ID50, heading: Pre-synaptic 5-HT1A ID50, dose blocking 50% of hypothermia induced by 0.5 mg/kg s.c. 8-OH-DPAT in mice, compound i.v.
T1 construct: from tissue; host or cells: whole animal, male CD-1 mice
T1 sequence (Q64264 1-421): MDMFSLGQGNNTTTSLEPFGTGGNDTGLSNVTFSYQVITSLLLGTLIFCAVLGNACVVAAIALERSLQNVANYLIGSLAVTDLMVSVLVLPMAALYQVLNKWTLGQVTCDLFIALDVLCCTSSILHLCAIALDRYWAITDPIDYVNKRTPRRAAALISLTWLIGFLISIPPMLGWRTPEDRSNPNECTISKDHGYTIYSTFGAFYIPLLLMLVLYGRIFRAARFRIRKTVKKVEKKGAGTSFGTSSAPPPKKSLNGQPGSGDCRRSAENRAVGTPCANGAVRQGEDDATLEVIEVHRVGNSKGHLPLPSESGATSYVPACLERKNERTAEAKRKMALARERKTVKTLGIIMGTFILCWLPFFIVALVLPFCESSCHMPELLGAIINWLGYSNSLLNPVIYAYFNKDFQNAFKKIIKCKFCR
Experimental: The antagonistic effect of the 5-HT1A receptor antagonists of the invention on hypothermia induced by 8-OH-DPAT was evaluated by the method of Moser (Moser, Eur.J.Pharmacol., 193:165, 1991) with minor modifications as described below. Male CD-1 mice (28-38 g) obtained from Charles River (Italy) were housed in a climate-controlled room (temperature 22±2 C.; humidity 55±15%) and maintained on a 12 h light/dark cycle with free access to food and water. On the day of experiment, mice were placed singly in clear plastic boxes under the same ambient conditions. Body temperature was measured by the insertion of a temperature probe (Termist TM-S, LSI) into the rectum to a depth of 2 cm. Rectal temperature was measured immediately prior to intravenous injection of the test compound. All animals then received 8-OH-DPAT (0.5 mg/kg s.c.) and their temperature was measured 30 min later. For each animal, temperature changes were calculated with respect to pretreatment values and the mean values were calculated for each treatment group. A linear regression equation was used in order to evaluate ID50 values, defined as the dose of antagonist needed to block 50% of the hypothermic effect induced by 0.5 mg/kg 8-OH-DPAT administered subcutaneously.

[2] = target: T2, 5-HT2A serotonergic receptors (Rattus norvegicus, UniProt P14842); assay: Radioreceptor binding, native 5-HT2A receptors, rat cerebral cortex ([3H]ketanserin); settings: Table 3A not given
T2 construct: from tissue; host or cells: rat cerebral cortex membranes
Experimental: (§1) Binding studies on native α2 adrenergic receptors (Diop L. et al, J. Neurochem. 41, 710-715, 1983), and 5-HT2A serotonergic receptors (Craig A. and Kenneth J., Life Sci. 38, 117-127, 1986) were carried out in membranes of rat cerebral cortex. Male Sprague Dawley rats (200-300 g, SD Harlan/Nossan, Italy) were killed by cervical dislocation and cerebral cortexes were excised and immediately frozen in liquid nitrogen and stored at −70° C. until use. Tissues were homogenized (2×20 sec) in 50 volumes of cold 50 mM Tris-HCl buffer pH 7.4, using a Polytron homogenizer (speed 7). Homogenates were centrifuged at 49000×g for 10 min, resuspended in 50 volumes of the same buffer, incubated at 37° C. for 15 min and centrifuged and resuspended twice more. […] Non-specific binding was determined in the presence of 10 μM phentolamine (a2-adrenergic receptors) or 2 μM ketanserin (5-HT2A serotoninergic receptors). […] The filters are then washed with ice-cold buffer and the radioactivity retained on the filters was counted by liquid scintillation spectrometry.
(§2) The inhibition of specific binding of the radioligands by the tested drugs was analyzed to estimate the IC50 value by using the non-linear curve-fitting program Allfit (De Lean et al., Am. J. Physiol. 235, E97-E102, 1978). […]

[3] = tested on: α2 adrenergic receptors; assay: Radioreceptor binding, native α2-adrenoceptors, rat cerebral cortex ([3H]rauwolscine); settings: Table 3A not given
Experimental: as §1, §2

T2 sequence (P14842 whole entry): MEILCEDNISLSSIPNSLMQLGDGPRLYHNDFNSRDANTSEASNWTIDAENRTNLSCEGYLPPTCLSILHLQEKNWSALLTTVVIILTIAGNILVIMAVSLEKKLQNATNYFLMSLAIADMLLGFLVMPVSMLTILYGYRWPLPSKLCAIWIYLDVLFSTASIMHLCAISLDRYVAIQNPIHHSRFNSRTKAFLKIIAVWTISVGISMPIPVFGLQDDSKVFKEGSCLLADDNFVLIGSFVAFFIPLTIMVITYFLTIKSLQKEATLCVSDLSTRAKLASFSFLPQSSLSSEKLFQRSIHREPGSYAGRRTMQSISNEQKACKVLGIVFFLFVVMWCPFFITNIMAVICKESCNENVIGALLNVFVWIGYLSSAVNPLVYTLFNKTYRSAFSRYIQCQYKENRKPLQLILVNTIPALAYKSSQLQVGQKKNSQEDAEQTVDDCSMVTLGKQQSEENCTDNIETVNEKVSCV

COc1ccccc1N1CCN(CCN(C(=O)C2CCCCC2)c2ccccc2)CC1 [Compound A, 1-(N-phenyl-N-cyclohexylcarbonyl-2-aminoethyl)-4-(2-methoxyphenyl)piperazine, reference compound]
fold less active than compound of Example 2, pre-synaptic model ([1]; hypothermia model in mice): at least 10 fold | ED50 [1]: 0.221 mg/kg

COc1ccccc1N1CCN(CCN(C(=O)C2CCCCC2)c2ccccc2[N+](=O)[O-])CC1 [Example 2, 1-[N-(2-nitrophenyl)-N-cyclohexylcarbonyl-2-aminoethyl]-4-(2-methoxyphenyl) piperazine]
selectivity for the 5-HT1A receptor versus the 5-HT2A [2]: much more selective than compound A | ED50 [1]: 0.02 mg/kg | selectivity for the 5-HT1A receptor versus the a2-adrenoceptors [3]: much more selective than compound A
